Assay results published in ChEMBL document CHEMBL5241138, “Inhibitors of Interleukin 4 Induced Protein 1 (IL4I1) as Potential Treatment for Cancer” (ACS Med Chem Lett, 2023).

Target: T1, L-amino-acid oxidase (Homo sapiens, UniProt Q96RQ9)
T1 sequence (Q96RQ9 whole entry): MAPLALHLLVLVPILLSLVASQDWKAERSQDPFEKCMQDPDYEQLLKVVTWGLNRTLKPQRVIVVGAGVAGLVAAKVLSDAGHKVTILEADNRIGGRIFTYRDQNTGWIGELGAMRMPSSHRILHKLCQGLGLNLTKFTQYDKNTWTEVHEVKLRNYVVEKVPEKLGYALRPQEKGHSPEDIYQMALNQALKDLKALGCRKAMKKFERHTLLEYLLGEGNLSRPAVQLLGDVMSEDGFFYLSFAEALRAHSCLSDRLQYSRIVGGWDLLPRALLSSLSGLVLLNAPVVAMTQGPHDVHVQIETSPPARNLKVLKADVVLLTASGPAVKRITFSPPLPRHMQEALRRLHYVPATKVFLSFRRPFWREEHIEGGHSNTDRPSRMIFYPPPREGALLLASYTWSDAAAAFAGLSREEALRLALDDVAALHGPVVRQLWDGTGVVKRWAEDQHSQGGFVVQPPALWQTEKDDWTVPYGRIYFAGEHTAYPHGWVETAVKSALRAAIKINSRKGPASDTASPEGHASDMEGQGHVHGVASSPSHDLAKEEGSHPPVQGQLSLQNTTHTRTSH
Experiment: Inhibition of C-terminal 6-His tagged recombinant human IL4I1 (Gln22 to His567 residues) expressed in CHO cells using Phe/Tyr/Trp as substrate assessed as inhibition of H2O2 production measured after 240 mins by Amplex red and horseradish peroxidase based fluorescence assay

O=C1C(=O)N(C2C[C@@H]3C[C@@H]3C2)CCN1Cc1ccc(-c2nccs2)nn1 (stereo partly specified)
EC50: 23 nM
